Several values for one entry are separate records, joined by “and”; a condition that tells them apart may be missing. Equal entries are not always repeated.

The subject of this assay is GK rats. In words: GK rat acute efficacy (glucose, insulin, glucagon after single dose). In kind it is in vivo. The method, then:
Ambient blood glucose was measured via tail snip with a glucometer (OneTouch Ultra, Lifescan Inc., Milpitas, CA). Body weights were then measured, and food was removed approximately 1 hr post lights on. Animals were sorted into treatment groups based on ambient glucose. At approximately 10 AM, glucose was measured and blood for insulin, glucagon, and drug exposure was collected. […] Each compound tested was dosed at its maximal effective dose determined through a series of dose titrations using this experimental paradigm (data not shown). Effects of treatment on glucose, insulin, and glucagon were measured at 1, 2, 4, and 24 hrs post dose. After the 4 hr blood collection, food was returned overnight and removed the next day at 1 hr post lights on.
Blood for insulin, glucagon, GLP-1, GIP, and PYY measurements was collected into K2EDTA Microtainer tubes (BD, Franklin Lakes, NJ) pre-treated with DPP4 inhibitor (Millipore, Billerica, MA) and cOmplete™ Protease Inhibitor Cocktail Tablets (Roche Diagnostics, Indianapolis, IN). Tubes were centrifuged for 10 minutes at 5000 RPM, and plasma was aliquotted for analysis. Plasma insulin levels were measured via EIA (Mesoscale Discovery ELISA Kit, Gaithersburg MD). Rat plasma total GLP-1 was measured using Total GLP-1 (ver.2) Assay Kit (Cat#: K150JVC). The measurement of active GLP-1 was carried out in a similar manner as that described for total GLP-1 assay with the exception that MSD Active GLP-1 (ver. 2) assay kit (Cat# K150JWC) was used. Rat plasma glucagon was measured using an in-house glucagon assay developed as a MSD format sandwich immunoassay (Merck & Co., Inc., MRL, Kenilworth, NJ USA). The antibody specificity was cross validated via mass- spec using procedures described in Lee et al. Briefly, MSD Streptavidin Gold plates were coated with 2 μg/ml biotin mouse monoclonal antibody generated to glucagon. Test samples were added to the plates and a separate Sulfo- tagged monoclonal antibody was used to detect the captured glucagon protein (2 μg/ml). The ELISA was carried out in the standard reagents in the MSD format. The plate was read on the SECTOR Imager 6000 Reader. Metabolic hormones GIP (Gastric Inhibitory Polypeptide) and PYY (Peptide YY) were measured in rat plasma using the Rat Metabolic Magnetic Bead Panel (EMD Millipore, Billerica, MA). The assay was performed according to manufacturer protocol.

The mark [1] stands for this setting: 10 mpk, time 0, individual animals.
Where [2] appears, read: 10 mpk, time 1, individual animals.
[3] abbreviates: 10 mpk, time 2, individual animals.
Where [4] appears, read: 10 mpk, time 4, individual animals.
[5] abbreviates: 10 mpk, time 24, individual animals.
Setting [6] is: 30 mpk, time 0, individual animals.
Where [7] appears, read: 30 mpk, time 1, individual animals.
The mark [8] stands for this setting: 30 mpk, time 2, individual animals.
The mark [9] stands for this setting: 30 mpk, time 4, individual animals.
Setting [10] is: 30 mpk, time 24, individual animals.

Consider `Cc1cc(OCCCS(C)(=O)=O)cc(C)c1-c1cccc(COc2ccc3c(c2)OC[C@H]3CC(=O)O)c1` [TAK-875, reference compound], for which the “blood glucose vs vehicle” value (GK rat, single PO dose at maximal efficacious dose, 24 hr time course) was “reduced from the 1 hr time point until the 8 hr time point”. Moreover, the Plasma Glucagon result (GK rat, single PO dose at maximal efficacious dose, up to 24 hr) was “not significant”.
On to `C[C@H](C(=O)O)[C@H](c1ccc2c(c1)O[C@H](C1CN(Cc3cc(C(F)(F)F)ccc3C(F)(F)F)C1)CC2)C1CC1` [AP3], for which the “Plasma Glucagon Over Time (Fig 2C)” value runs as follows: under setting [1], 19.5235 pg/mL and 95.1724 pg/mL and 78.4069 pg/mL and 68.928 pg/mL and 101.768 pg/mL and 68.1132 pg/mL and 64.8322 pg/mL and 90.2934 pg/mL; under setting [2], 91.082 pg/mL and 337.393 pg/mL and 327.979 pg/mL and 373.532 pg/mL and 338.805 pg/mL and 110.666 pg/mL and 312.795 pg/mL and 175.651 pg/mL; under setting [3], 309.053 pg/mL and 291.695 pg/mL and 285.862 pg/mL and 322.143 pg/mL and 116.312 pg/mL and 40.1476 pg/mL and 259.365 pg/mL and 215.877 pg/mL; under setting [4], 120.787 pg/mL and 261.082 pg/mL and 116.805 pg/mL and 218.976 pg/mL and 231.061 pg/mL and 206.193 pg/mL and 151.031 pg/mL and 315.618 pg/mL; under setting [5], 114.227 pg/mL and 80.8254 pg/mL and 201.451 pg/mL and 177.87 pg/mL and 103.778 pg/mL and 114.567 pg/mL and 171.755 pg/mL and 119.088 pg/mL. Besides, the “Plasma Insulin Over Time (Fig 2B)” value by setting is: under setting [1], 1.335 ng/mL and 3.288 ng/mL and 2.57 ng/mL and 2.616 ng/mL and 1.578 ng/mL and 2.696 ng/mL and 1.845 ng/mL and 1.5169 ng/mL; under setting [2], 7.035 ng/mL and 11.786 ng/mL and 10.5354 ng/mL and 9.1461 ng/mL and 4.564 ng/mL and 7.402 ng/mL and 7.0553 ng/mL and 5.184 ng/mL; under setting [3], 3.782 ng/mL and 3.3115 ng/mL and 3.493 ng/mL and 3.854 ng/mL and 1.215 ng/mL and 0.8625 ng/mL and 2.2798 ng/mL and 2.163 ng/mL; under setting [4], 3.033 ng/mL and 3.537 ng/mL and 3.038 ng/mL and 2.421 ng/mL and 1.582 ng/mL and 1.483 ng/mL and 2.06 ng/mL and 1.86 ng/mL; under setting [5], 1.556 ng/mL and 1.426 ng/mL and 1.797 ng/mL and 1.415 ng/mL and 0.6908 ng/mL and 1.576 ng/mL and 1.455 ng/mL and 1.848 ng/mL.
Consider `COc1ccc(F)c(-c2ccc([C@@H]3CCc4ccc([C@H](C5CC5)[C@H](C)C(=O)O)cc4O3)cc2)c1` [AP1], for which the “Plasma Glucagon Over Time (Fig 2C)” value is, setting by setting: under setting [6], 55.7691 pg/mL and 68.321 pg/mL and 77.904 pg/mL and 111.395 pg/mL and 52.9088 pg/mL and 48.0782 pg/mL and 166.643 pg/mL and 75.2113 pg/mL; under setting [7], 68.4222 pg/mL and 203.855 pg/mL and 443.444 pg/mL and 510.501 pg/mL and 371.284 pg/mL and 243.688 pg/mL and 323.455 pg/mL and 532.086 pg/mL; under setting [8], 677.742 pg/mL and 147.407 pg/mL and 198.886 pg/mL and 95.5346 pg/mL and 199.272 pg/mL and 184.367 pg/mL and 336.315 pg/mL and 387.077 pg/mL; under setting [9], 426.615 pg/mL and 76.1995 pg/mL and 36.6178 pg/mL and 86.9884 pg/mL and 83.1703 pg/mL and 202.015 pg/mL and 219.163 pg/mL and 202.907 pg/mL; under setting [10], 168.326 pg/mL and 107.348 pg/mL and 18.8494 pg/mL and 200.464 pg/mL and 140.291 pg/mL and 122.096 pg/mL and 264.039 pg/mL and 261.868 pg/mL. Also, the “Plasma Insulin Over Time (Fig 2B)” value is 1.368 ng/mL and 2.115 ng/mL and 2.541 ng/mL and 1.628 ng/mL and 3.5154 ng/mL and 1.38 ng/mL and 1.662 ng/mL and 2.024 ng/mL under setting [6]; 2.471 ng/mL and 8.448 ng/mL and 6.286 ng/mL and 2.7997 ng/mL and 8.046 ng/mL and 6.547 ng/mL and 6.926 ng/mL and 4.435 ng/mL under setting [7]; 2.6557 ng/mL and 2.936 ng/mL and 3.027 ng/mL and 0.7256 ng/mL and 3.203 ng/mL and 2.271 ng/mL and 3.072 ng/mL and 2.0183 ng/mL under setting [8]; 2.117 ng/mL and 1.616 ng/mL and 1.477 ng/mL and 1.139 ng/mL and 1.988 ng/mL and 2.587 ng/mL and 2.052 ng/mL under setting [9]; 1.016 ng/mL and 0.9428 ng/mL and 0.1505 ng/mL and 1.222 ng/mL and 1.548 ng/mL and 1.3655 ng/mL and 1.314 ng/mL and 1.563 ng/mL under setting [10].

Values taken from PMC5650142, “GPR40 partial agonists and AgoPAMs: Differentiating effects on glucose and hormonal secretions in the rodent” (PLoS ONE, 2017).
